For this assay, the system named is T1, tetrodotoxin-sensitive voltage-gated Nav channels.
T1 construct: gene Scn1a
The assay can be described thus: whole-cell patch clamp, voltage ramp. The note with it: INa at maximal amplitude; veratridine 100 μM present, 2 mM NiCl2, 22–24 °C, pH 7.4; block voltage-dependent. In kind it is cell-based, Rattus norvegicus. Background: The patch-clamp technique gives a direct electrical read-out from membranes.

Consider 1 molecule from paper PMC4674695, “Antagonism of Nav channels and α1-adrenergic receptors contributes to vascular smooth muscle effects of ranolazine” (Scientific Reports, 2015).

Take `COc1ccccc1OCC(O)CN1CCN(CC(=O)Nc2c(C)cccc2C)CC1` (stereo not shown) [ranolazine]: the “% inhibition at 20 μM” value was 40%.

In general, % inhibition refers to the relative decrease from the control value, in per cent.
